Columns and labels:
[1] = system: primary neuronal cultures taken from the cerebral cortex of rats; assay: Neuroprotection in primary neuronal cultures exposed to OGD 4 h and 24 h reperfusion (MTT cell viability); type: cell-based; settings: for neuronal viability (versus 100% control): added at beginning of reperfusion, OGD 4 h, R24h
Source text: The neuroprotective power of cholesteronitrones F2 and F3 has been determined in primary neuronal cultures, cultured from 6 to 8 days, taken from the cerebral cortex of rats (Quevedo, C, Salinas, M, Alcázar, A. Initiation factor 2B activity is regulated by protein phosphatase 1, which is activated by the mitogen-activated protein kinase-dependent pathway in insulin-like growth factor 1-stimulated neuronal cells. J. Biol. Chem. 2003, 278, 16579-16586), and subjected to oxygen-glucose deprivation (OGD) (Chioua M, Sucunza D, Soriano E, Hadjipavlou-Litina D, Alcázar A, Ayuso I, Oset-Gasque M J, González M P, Monjas L, Rodríguez-Franco M I, Marco-Contelles J, Samadi A. α-aryl-N-alkyl nitrones, as potential agents for stroke treatment: synthesis, theoretical calculations, antioxidant, anti-inflammatory, neuroprotective, and brain-blood barrier permeability properties. J Med Chem. 2012, 55, 153-168), according to the following protocol:
Cell viability was measured using 3-(4,5-dimethylthiazol-2-yl)-2,5-diphenyl tetrazolium bromide (MTT).
Cholesteronitrones F2 and F3, in a range of concentrations from 0.1 to 100 μM, and from 0.5 to 10 μM, respectively, were added at the beginning of the reperfusion period to evaluate their neuroprotective power, using citicoline, a well-known neuroprotective agent, as a reference compound (Adibhatla, R M, Hatcher, J F, Dempsey, R J. Citicoline: neuroprotective mechanisms in cerebral ischemia. J. Neurochem. 2002, 80, 12-23). Citicoline was tested at variable concentrations, between 1 μM and 1 mM, a neuroprotective effect being found at 10 and 100 μM (87.4 and 88.1%, respectively), the effect of 100 μM being significant compared with the value obtained at R24h (analysis of variance (ANOVA), p<0.0021; and p<0.01, post-Dunnett test].

[2] = system: primary neuronal cultures taken from the cerebral cortex of rats; assay: Long-term neuroprotection in neuronal cultures exposed to OGD 4 h and reperfusion for 5 d (R5d), MTT; type: cell-based
Procedure: To evaluate the neuroprotective power of cholesteronitrones F2 and F3 against ischaemic damage in cultured neurons and simulate long-term reperfusion conditions, the cultures were exposed to OGD for 4 h, and the cells were then subjected to reperfusion for 5 d (R5d).
Cholesteronitrones F2 and F3 (at concentrations of 1.0 and 5.0 μM) were added at the beginning of the reperfusion period and after 48 h of reperfusion, to thus evaluate their long-term neuroprotective power, again using the reference molecule citicoline, according to the protocol of the MTT (see above).

[3] = system: global ischaemia in adult rats; assay: Global ischaemia by four-vessel occlusion, apoptosis by TUNEL method after 5 d reperfusion; type: in vivo; settings: R5d
Source text: (§1) Global ischaemia was induced in adult rats according to the conventional four-vessel occlusion method [(a) Martín de la Vega C, Burda J, Nemethova M, Quevedo C, Alcázar A, Martín M E, Salinas M. Possible mechanisms involved in the down-regulation of translation during transient global ischaemia in the rat brain. Biochem J 2001, 357, 819-826; (b) García-Bonilla L, Cid C, Alcázar A, Burda J, Ayuso I, Salinas M. Regulation proteins of eukaryotic initiation factor 2-alpha subunit (eIF2a) phosphatase, under ischemic reperfusion and tolerance. J Neurochem 2007, 103, 1368-1380; (c) Ayuso M I, Hernández-Jiménez M, Martín M E, Salinas M, Alcázar A. New hierarchical phosphorylation pathway of the translational repressor eIF4E-binding protein 1 (4E-BP1) in ischemia-reperfusion stress. J Biol Chem 2010, 285, 34355-34363].
(§2) Therefore, the two vertebral arteries were completely cauterized, and after 24 h ischaemia is induced by carotid occlusion by means of small clamps for 15 min; the clamps were then removed and reperfusion was performed. After 5 d (R5d), the animals were sacrificed. The animals were treated with cholesteronitrone F2, diluted in 10% ethanol in saline solution as a carrier, administered intraperitoneally from the beginning of the reperfusion period. Ten animals were tested; one of the five animals treated with carrier died 2 d after reperfusion. All the protocols used in the experiments with animals were performed according to the guidelines approved by the Ethics Committee of Hospital Ramón y Cajal (Madrid). In the model of four-vessel occlusion cerebral ischaemia in rats, after a brief period of ischaemia delayed neurodegeneration is produced in the CA1 region of the hippocampus [(a) Kirino T. Delayed neuronal death. Neuropathology 2000, 20, S95-S97; (b) Pulsinelli W A, Brierley J B, Plum F. Temporal profile of neuronal damage in a model of transient forebrain ischaemia. […]

[4] = system: global ischaemia in adult rats; assay: Global ischaemia by four-vessel occlusion, neuronal death by Fluoro-Jade B after 5 d reperfusion; type: in vivo; settings: R5d, 0.1 mg/kg intraperitoneally
Source text: as §1, §2

[5] = 1 μM, added at the beginning of reperfusion
[6] = 5 μM, added at the beginning of reperfusion

## CC(C)CCC[C@@H](C)[C@H]1CC[C@H]2[C@@H]3CCC4=C/C(=[N+](/C)[O-])CC[C@]4(C)[C@H]3CC[C@]12C [cholesteronitrone F3, (Z)—N-((8S,9S,10R,13R,14S,17R)-10,13-dimethyl-17-((R)-6-methylheptan-2-yl)-7,8,9,11,12,13,14,15,16,17-decahydro-1H-cyclopenta[a]phenanthren-3(2H,6H,10H)-ylidene)methanamine oxide]
[1]; 0.5 μM, OGD conditions
  Neuroprotection (%): <0%
[1]; 1.0 μM, OGD conditions
  Neuroprotection (%): 18.8 ± 1.1%
[1]; 5.0 μM, OGD conditions
  Neuroprotection (%): 21.7 ± 1.2%
[1]; 10 μM, OGD conditions
  Neuroprotection (%): 0.8 ± 0.07%
[1]; 1 or 5 μM, compared with R24h
  significant increase of neuronal viability during reperfusion: not
[2]; [5]
  neuronal viability in R5d experiment (versus 100% control): 105.6%
[2]; 5 μM, added after 48 h of reperfusion
  neuronal viability in R5d experiment (versus 100% control): 97.8%
[2]; [6]
  neuronal viability in R5d experiment (versus 100% control): 118.6%

## CC(C)CCC[C@@H](C)[C@H]1CC[C@H]2[C@@H]3CCC4=C/C(=[N+](\C)[O-])CC[C@]4(C)[C@H]3CC[C@]12C [cholesteronitrone F2, (E)-N-((8S,9S,10R,13R,14S,17R)-10,13-dimethyl-17-((R)-6-methylheptan-2-yl)-7,8,9,11,12,13,14,15,16,17-decahydro-1H-cyclopenta[a]phenanthren-3(2H,6H,10H)-ylidene)methanamine oxide]
[1]; 0.1 μM, OGD conditions
  Neuroprotection (%): 9.6 ± 0.5%
[1]; 0.5 μM, OGD conditions
  Neuroprotection (%): 49.3 ± 3.6%
[1]; 1.0 μM, OGD conditions
  Neuroprotection (%): 54.3 ± 1.3 %
[1]; 1 μM
  neuronal viability (versus 100% control): 89.1%
[1]; 5 μM, OGD conditions
  neuroprotection compared with citicoline: significantly higher neuroprotection than that observed for citicoline
[1]; 5.0 μM, OGD conditions
  Neuroprotection (%): 80.7 ± 2.7 %
[1]; 5 μM
  neuronal viability (versus 100% control): 95.5%
[1]; 10 μM, OGD conditions
  Neuroprotection (%): 47.2 ± 1.4%
[1]; 50 μM, OGD conditions
  Neuroprotection (%): <0%
[1]; 100 μM, OGD conditions
  Neuroprotection (%): <0%
[2]; 1 μM, added after 48 h of reperfusion
  neuronal viability in R5d experiment (versus 100% control): 95.7%
[2]; [5]
  neuronal viability in R5d experiment (versus 100% control): 110.6%
[2]; [6]
  neuronal viability in R5d experiment (versus 100% control): 118.2%
[3]; CA1 area, carrier 64.1±7.1
  neuronal apoptotic death, TUNEL-positive: 48.5±0.4 nuclei per field
[3]; cerebral cortex, carrier 7.2±3.8
  neuronal apoptotic death, TUNEL-positive: 1±0.5 nuclei per field
[3]; lateral cortex, carrier 13.3±6.2
  neuronal apoptotic death, TUNEL-positive: 4.3±1.4
[4]; CA1 region, saline/carrier 70.4±2.4
  neuronal death, Fluoro-Jade B: 55.1±3.4 cells per field
[4]; cerebral cortex, carrier 6.7±3.5
  neuronal death, Fluoro-Jade B: 0±0.1 cells per field
[4]; lateral cortex, carrier 13.4±3.6
  neuronal death, Fluoro-Jade B: 6.3±2.2

## C[N+](C)(C)CCOP(=O)(O)OP(=O)([O-])OC[C@H]1O[C@@H](n2ccc(N)nc2=O)[C@H](O)[C@@H]1O [citicoline, reference compound]
[1]; 10 μM
  neuronal viability (versus 100% control): 87.4%
[1]; 100 μM, OGD conditions
  Neuroprotection (%): 50.2 ± 1.26%
[1]; 100 μM
  neuronal viability (versus 100% control): 88.1%
[2]; 100 μM, added after 48 h of reperfusion
  neuronal viability in R5d experiment (versus 100% control): 74.6%
[2]; 100 μM, added at the beginning of reperfusion
  neuronal viability in R5d experiment (versus 100% control): 76.0%

Source: patent US10071106B2, “Steroidal nitrones for the treatment and prevention of a cerebral stroke or ischaemia, alzheimer and parkinson disease and amyotrophic lateral sclerosis” (FUNDACIÓN PARA LA INVESTIGACIÓN BIOMÉDICA DEL HOSPITAL …, priority 2013, dated 2018)
